We go through 1 compound from patent US20120045515A1, “HOLLOW SILICA PARTICLE WITH A POLYMER THEREON” (priority 2009, published 2012).

For orientation: IC50 means the point on the concentration scale where inhibition reaches its midpoint. A high value points to weaker potency in that assay. One may read the solubility as the concentration that dissolves in the medium under given conditions.

One series concerns MCF-7 cells. The series can be described thus: In vitro cytotoxicity, MTT assay, in MCF-7 cells. It is filed as cell-based. The note with it: Homo sapiens, MCF7, incubation for 72 h. As for the experimental part:
(§1) Cytotoxicity of pure PTX, PEG-g-hollow silica vesicles, and PTX loaded PEG-g-hollow silica vesicles was evaluated in MCF-7 cell lines and U-87 MG cell lines. Viability of the cells was assessed by the standard thiazolyl blue [3-(4,5-dimethyliazolyl-2)-2,5-diphenyl tetrazolium bromide] (MTT) assay. This colorimetric assay allows determination of the number of viable cells through the metabolic activity of the cells.
(§2) The cancer cells were seeded in 96-well plates with a seeding density 10,000 cells/well and were cultured in DMEM supplemented with 10% FBS and 1% penicillin/streptomycin solution in an incubator at 37° C., 5% CO2, and 95% relative humidity. The cells were allowed to adhere to the well bottom upon overnight incubation. Then the medium was replaced with the sample solutions of different concentrations. Meanwhile, wells containing only cell culture medium were prepared as untreated controls. At the predetermined time, the medium containing samples was aspirated and the wells were washed with 1×PBS solution for two times to removed non-internalized sample. […] The absorbance intensity of the solution was then quantified spectrophotometrically using a microplate reader (TECAN SpectraFluor Plus) at 570 nm. […]
(§3) where Abssample was the absorbance for the cells treated with the samples, while Abscontrol was the absorbance for the untreated control cells. […]
On the technique in general: Formazan colour is commonly taken as a measure of viable cells.

In a further series the test system is U-87 MG cells. The series can be described thus: In vitro cytotoxicity, MTT assay, in U-87 MG cells. The conditions noted are these: Homo sapiens, incubation for 72 h. It is filed as cell-based. As for the experimental part:
as §1, §2, §3

Series [1] is described as follows: Release profile of paclitaxel by dialysis in 1×PBS buffer at 37° C., HPLC. The class given is physicochemical. The conditions noted are these: after 330 h, 1×PBS buffer solution. As to the method: In a typical process, 0.7 mg of paclitaxel loaded PEG-graft-hollow silica was dispersed in 3 ml of 1×PBS buffer solution under ultrasonication for 2 h at a temperature below 30° C. The solution was transferred into a dialysis tube with a molecular weight cutting of 10 000. The dialysis tube was placed into a conical flask containing 40 ml of 1×PBS buffer solution. The conical flask was kept in a water bath at 37° C. and was stirred at 100 rpm. The outside buffer solution was exchanged with a fresh buffer solution at a predetermined time interval to maintain a sink condition. The released paclitaxel was extracted from the drawn buffer solution using 4 ml of dichloromethane. After shaking and setting down, the dichloromethane solution was collected. After chloromethane was evaporated at room temperature, the solid reconstituted in 2 mL of acetonitrile/water (50:50; v/v) for HPLC measurement to determine PTX amounts.
To measure the release profile of free PTX, 2 mg of PTX was firstly dissolved in 4 mL methanol to get a solution of a concentration of 0.5 mg/mL. After ultrasonication for 40 min, 0.4 mL of the solution was taken out and was dried by evaporating methanol. The solid was dissolved in 3 mL of 1×PBS solution (pH 7.4), and the release profile was monitored.

Series [2] is described as follows: Saturated solubility of PTX in methanol. The conditions noted are these: organic solvent or mixture, saturated solution in methanol. It is filed as physicochemical.

Structures are written as SMILES. Converted amounts (≈) assume the structure as drawn.

Turning to `CC(=O)O[C@H]1C(=O)[C@@]2(C)[C@H]([C@H](OC(=O)c3ccccc3)[C@]3(O)C[C@H](OC(=O)[C@H](O)[C@@H](NC(=O)c4ccccc4)c4ccccc4)C(C)=C1C3(C)C)[C@]1(OC(C)=O)CO[C@@H]1C[C@@H]2O` [free PTX, paclitaxel], the IC50 in the series on MCF-7 cells turned out to be 0.1 mg/L (≈ 0.117 µM); in the series with U-87 MG cells, 0.073 mg/L (≈ 0.0855 µM). Besides, the PTX released in series [1] was found to be 5%. Also, in series [2], the solubility was found to be 50 mg/mL (≈ 58600 µM).
